We go through eleven compounds from ChEMBL document CHEMBL4017473, “Discovery of LRRK2 inhibitors by using an ensemble of virtual screening methods” (Bioorg Med Chem Lett, 2017).

The target in test [1] is Leucine-rich repeat serine/threonine-protein kinase 2 (Homo sapiens, UniProt Q5S007). The test can be described thus: Inhibition of full length wild-type LRRK2 (unknown origin) using biotinylated ezrin/radaxin/meosin peptide as substrate measured after 1 hr.
Test [2] addresses Leucine-rich repeat serine/threonine-protein kinase 2 (Homo sapiens, UniProt Q5S007, G2019S). Put plainly: Inhibition of LRRK2 G2019S mutant (unknown origin) using biotinylated ezrin/radaxin/meosin peptide as substrate measured after 1 hr.

Sequence of Leucine-rich repeat serine/threonine-protein kinase 2 (Homo sapiens, UniProt Q5S007) (Q5S007 whole entry): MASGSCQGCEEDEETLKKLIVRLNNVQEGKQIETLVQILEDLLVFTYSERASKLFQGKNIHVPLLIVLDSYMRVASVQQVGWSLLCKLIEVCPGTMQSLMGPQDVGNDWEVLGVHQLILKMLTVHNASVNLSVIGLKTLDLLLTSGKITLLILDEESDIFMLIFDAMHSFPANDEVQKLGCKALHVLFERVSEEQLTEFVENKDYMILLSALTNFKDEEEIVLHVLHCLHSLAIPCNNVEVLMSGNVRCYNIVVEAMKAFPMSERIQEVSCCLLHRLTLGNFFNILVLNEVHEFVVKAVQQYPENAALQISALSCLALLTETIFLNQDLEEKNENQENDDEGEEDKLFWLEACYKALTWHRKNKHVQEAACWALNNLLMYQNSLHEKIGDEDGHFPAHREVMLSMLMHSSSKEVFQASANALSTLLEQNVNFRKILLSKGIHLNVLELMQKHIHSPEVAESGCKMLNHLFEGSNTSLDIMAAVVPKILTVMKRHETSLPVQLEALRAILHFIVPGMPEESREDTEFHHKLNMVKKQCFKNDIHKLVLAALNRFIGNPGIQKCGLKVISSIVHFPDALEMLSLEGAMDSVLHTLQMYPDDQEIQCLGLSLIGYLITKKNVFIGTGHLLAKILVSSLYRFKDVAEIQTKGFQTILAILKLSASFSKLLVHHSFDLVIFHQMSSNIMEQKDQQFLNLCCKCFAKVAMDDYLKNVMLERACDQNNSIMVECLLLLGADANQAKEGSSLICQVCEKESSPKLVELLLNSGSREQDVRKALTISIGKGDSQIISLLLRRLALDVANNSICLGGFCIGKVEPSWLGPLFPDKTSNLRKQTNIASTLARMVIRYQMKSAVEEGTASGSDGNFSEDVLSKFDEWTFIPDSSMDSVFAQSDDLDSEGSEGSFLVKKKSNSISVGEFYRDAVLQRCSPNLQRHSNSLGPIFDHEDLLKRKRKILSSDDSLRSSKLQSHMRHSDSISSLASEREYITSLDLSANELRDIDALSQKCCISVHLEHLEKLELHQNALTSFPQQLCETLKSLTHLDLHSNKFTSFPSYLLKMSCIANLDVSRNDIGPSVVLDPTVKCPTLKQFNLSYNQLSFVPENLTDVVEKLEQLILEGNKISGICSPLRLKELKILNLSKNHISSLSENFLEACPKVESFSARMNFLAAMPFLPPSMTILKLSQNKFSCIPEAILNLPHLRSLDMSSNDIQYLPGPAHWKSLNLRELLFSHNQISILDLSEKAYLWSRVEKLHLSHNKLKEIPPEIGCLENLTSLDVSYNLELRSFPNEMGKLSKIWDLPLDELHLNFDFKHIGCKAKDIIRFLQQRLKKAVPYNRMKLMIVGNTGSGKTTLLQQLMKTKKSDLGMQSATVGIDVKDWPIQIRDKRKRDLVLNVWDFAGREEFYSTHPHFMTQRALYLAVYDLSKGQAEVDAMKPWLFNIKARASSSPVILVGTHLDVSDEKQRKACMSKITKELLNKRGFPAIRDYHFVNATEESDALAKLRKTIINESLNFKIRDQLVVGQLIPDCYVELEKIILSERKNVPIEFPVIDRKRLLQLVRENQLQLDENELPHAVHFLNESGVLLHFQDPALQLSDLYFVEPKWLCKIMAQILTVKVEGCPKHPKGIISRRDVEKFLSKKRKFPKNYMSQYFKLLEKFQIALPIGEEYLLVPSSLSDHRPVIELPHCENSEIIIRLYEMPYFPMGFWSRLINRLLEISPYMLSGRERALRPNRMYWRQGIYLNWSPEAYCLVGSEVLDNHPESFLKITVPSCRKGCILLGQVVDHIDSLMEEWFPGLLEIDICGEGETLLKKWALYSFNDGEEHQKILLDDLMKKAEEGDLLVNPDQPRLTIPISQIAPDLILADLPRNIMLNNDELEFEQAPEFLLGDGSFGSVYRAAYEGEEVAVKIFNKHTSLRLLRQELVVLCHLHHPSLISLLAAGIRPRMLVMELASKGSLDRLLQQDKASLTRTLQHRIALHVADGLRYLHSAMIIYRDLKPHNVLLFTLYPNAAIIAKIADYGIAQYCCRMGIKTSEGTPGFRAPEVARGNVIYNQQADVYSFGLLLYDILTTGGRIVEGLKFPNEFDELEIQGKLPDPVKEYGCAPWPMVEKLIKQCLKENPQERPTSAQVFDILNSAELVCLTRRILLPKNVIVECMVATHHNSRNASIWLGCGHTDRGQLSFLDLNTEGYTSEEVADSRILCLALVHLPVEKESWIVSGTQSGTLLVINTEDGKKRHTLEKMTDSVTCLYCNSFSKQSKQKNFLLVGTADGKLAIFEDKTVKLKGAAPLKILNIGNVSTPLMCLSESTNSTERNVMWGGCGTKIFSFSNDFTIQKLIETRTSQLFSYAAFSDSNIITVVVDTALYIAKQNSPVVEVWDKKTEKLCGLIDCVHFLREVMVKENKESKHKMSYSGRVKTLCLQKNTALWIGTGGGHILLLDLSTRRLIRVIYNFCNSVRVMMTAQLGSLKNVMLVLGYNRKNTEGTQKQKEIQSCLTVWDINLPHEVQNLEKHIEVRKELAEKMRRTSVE
Sequence of Leucine-rich repeat serine/threonine-protein kinase 2 (Homo sapiens, UniProt Q5S007, G2019S) (Q5S007 whole entry G2019S): as the sequence (Q5S007 whole entry) above, with G2019S counted along it

For `O=c1[nH]ccc2nc(N3CCC(O)CC3)nc(Nc3cccc(C(F)(F)F)c3)c12`, in test [1], the Ki was 0.054 µM.
As to `CN(C)S(=O)(=O)c1ccc(C(=O)Nc2nc3ccccc3n2-c2ccccc2)o1`, the IC50 in test [2] and in test [1] was more than 10 µM in each case.
With `CCn1c(NC(=O)c2ccnc(-n3ccnc3)c2)nc2ccccc21`, the IC50 in test [2] was 0.274 µM; in test [1] it was 0.343 µM.
`Cc1ccccc1Nc1nc2ccc(-c3cc(C)c(O)c(C)c3)cn2n1` came in with an IC50 in test [1] of 0.01 µM.
In the case of `Clc1c[nH]c2ncc(-c3cncc(N4CCOCC4)n3)cc12`, in test [2], the IC50 is not above 0.5 µM.
For `NC(=O)c1ccc(Nc2nc(N3CCOCC3)c3ccccc3n2)cc1`, the values for the 50% inhibitory concentration (IC50) in test [2] and in test [1] were 0.633 µM and 0.825 µM, respectively.
Compound `c1cc(-c2n[nH]c3ccnc(OC4CCOCC4)c23)cc(N2CCCC2)n1` came in with an IC50 in test [1] of 0.003 µM. This lies in the single-digit nanomolar range.
Take `C[C@@H](Nc1c(C(N)=O)nnc2cc(-c3ccncc3)ccc12)C1CC1`: in test [1], the IC50 was not above 0.006 µM.
`CCOc1ccc(Nc2nc(N3CCOCC3)c3nc[nH]c3n2)cc1`: the half-inhibitory concentration (IC50) in test [2] stood at 0.355 µM; in test [1], 0.351 µM.
On to `COc1cccc(Nc2nc(NCCO)c3nc[nH]c3n2)c1`, for which the IC50 in test [2] stood at 0.048 µM; in test [1], 0.084 µM.
The like results for `COc1cc(N2CCOCC2)ccc1Nc1ncc(F)c(Nc2ccccc2NS(C)(=O)=O)n1` were, in that order, 0.0019 µM and 0.0013 µM.
